{"source": "the NIST ThermoML archive (doi:10.1016/j.jct.2005.04.005)", "key": {"[1]": {"assay": "mn = molality of the nth substance listed, in mol/kg", "details": "101 kPa, Liquid"}, "[2]": {"details": "298.15 K; 101 kPa; Liquid"}}, "note": "± gives the expanded uncertainty stated by the source."}
{"smiles": "C1COCCOCCOCCOCCOCCO1", "note": "[1,4,7,10,13,16-hexaoxacyclooctadecane] + ClC(Cl)(Cl)Cl", "values": [{"measurement": "mass density", "setting": "[1]; 298.15 K, m1 = 0.0896", "value": "1569.55 ± 2.1", "unit": "kg/m3"}, {"measurement": "speed of sound", "setting": "[1]; 298.15 K, m1 = 0.0896", "value": "932.5 ± 1.7", "unit": "m/s"}, {"measurement": "mass density", "setting": "[1]; 298.15 K, m1 = 0.1666", "value": "1557.54 ± 2.1", "unit": "kg/m3"}, {"measurement": "speed of sound", "setting": "[1]; 298.15 K, m1 = 0.1666", "value": "941.9 ± 1.7", "unit": "m/s"}, {"measurement": "mass density", "setting": "[1]; 298.15 K, m1 = 0.3643", "value": "1529.41 ± 2", "unit": "kg/m3"}, {"measurement": "speed of sound", "setting": "[1]; 298.15 K, m1 = 0.3643", "value": "965.4 ± 1.8", "unit": "m/s"}, {"measurement": "mass density", "setting": "[1]; 298.15 K, m1 = 0.5719", "value": "1503.47 ± 1.9", "unit": "kg/m3"}, {"measurement": "speed of sound", "setting": "[1]; 298.15 K, m1 = 0.5719", "value": "989.2 ± 1.8", "unit": "m/s"}, {"measurement": "mass density", "setting": "[1]; 298.15 K, m1 = 0.8185", "value": "1476.37 ± 1.8", "unit": "kg/m3"}, {"measurement": "speed of sound", "setting": "[1]; 298.15 K, m1 = 0.8185", "value": "1015.6 ± 1.8", "unit": "m/s"}, {"measurement": "mass density", "setting": "[1]; 298.15 K, m1 = 1.013", "value": "1457.02 ± 1.8", "unit": "kg/m3"}, {"measurement": "speed of sound", "setting": "[1]; 298.15 K, m1 = 1.013", "value": "1034.2 ± 1.8", "unit": "m/s"}]}
{"smiles": "O", "note": "[water] + C1COCCOCCOCCOCCOCCO1", "values": [{"measurement": "mass density", "setting": "[1]; 295.15 K, m2 = 0", "value": "997.773 ± 0.6", "unit": "kg/m3"}, {"measurement": "mass density", "setting": "[1]; 297.15 K, m2 = 0", "value": "997.299 ± 0.6", "unit": "kg/m3"}, {"measurement": "mass density", "setting": "[1]; 299.15 K, m2 = 0", "value": "996.786 ± 0.6", "unit": "kg/m3"}, {"measurement": "mass density", "setting": "[1]; 301.15 K, m2 = 0", "value": "996.236 ± 0.61", "unit": "kg/m3"}]}
{"smiles": "ClC(Cl)(Cl)Cl", "note": "[tetrachloromethane]", "values": [{"measurement": "mass density", "setting": "[2]", "value": "1584.35 ± 2.2", "unit": "kg/m3"}, {"measurement": "speed of sound", "setting": "[2]", "value": "921.5 ± 1.7", "unit": "m/s"}]}
{"smiles": "ClC(Cl)(Cl)Cl", "note": "[tetrachloromethane] + C1COCCOCCOCCOCCOCCO1", "values": [{"measurement": "mass density", "setting": "[1]; 298.15 K, m2 = 0", "value": "1584.35 ± 2.2", "unit": "kg/m3"}, {"measurement": "speed of sound", "setting": "[1]; 298.15 K, m2 = 0", "value": "921.5 ± 1.7", "unit": "m/s"}]}
